Values after ≈ are worked out from the molar mass of the structure shown.
Experiments:
[1] = tested on: cucumber; test: Toxicity in gray mold prevention test on cucumber; format: in vivo, cucumber (variety: Sagamihanjiro)
Protocol: (§1) Onto 1.5 leaf-stage cucumber (variety: Sagamihanjiro) which had been grown in a 7 cm-diameter pot was sprayed, using a spray gun, a drug solution produced by diluting an emulsifiable concentrate containing the present compound with water to the predetermined concentration, at 10 ml per pot.
(§2) On the following day, the first leaf on which was sprayed the drug solution was plucked off, and onto the surface of the leaf was inoculated a mycelia disk which had been prepared from the tip of a cell cluster of Botrytis cinerea cultured at 20° C. for 2 days in a PSA (potato sucrose agar) medium using a 4 mm-diameter cork borer. Then, the cucumber leaf was allowed to stand for 5 days at 20° C. in a moist chamber, the diameter of the diseased spots which formed were measured, and the degree of control was determined according to the following equation. Here, iprodion (trade name: Lobral) was used as a control preparation.

[2] = tested on: Botrytis cinerea; test: Test for controlling gray mold on cucumber (curative test); format: in vivo; settings: (1-length treated/untreated)×100
Protocol: Test for Controling Gral Mold (Botrytis cinerea) on Cucumber (Curative Test)
The first leaf was plucked off from 1.5 leaf-sage cucumber (variety: Sgamihanjiro) which had been grown in a 7 cm-diameter pot, and a mycelia disk of Botrytis cinerea was inoculated in the same manner as in the Experiment 1. Then, the cucumber leaf was allowed to stand for 2 days at 20° C. in a moist chamber, and when the disease spots reached approximately […] in diameter, a drug solution produced by deluting an emulsion containing the present compound with water to the desired concentration was sprayed at 10 ml per leaf using a spray gun, and after drying in air the leaf was allowed to stand for 3 days at 20° C. in a moist chamber.
The lengths of the newly developed diseases spots were measured, and the preventive value was determined using the following equation.
Preventive value=(1-length of diseased spots of drug-treated group/length of diseased spots of untreated group)×100

[3] = Solubility in solvents; format: physicochemical
[4] = tested on: Botrytis cinerea; test: Test for controlling gray mold on cucumber (prevention test); format: in vivo; settings: (1-diameter treated/untreated)×100
Protocol: Test for Controlling Gray Mold (Botrytis cinerea) on Cucumber (Prevention Test)
as §1, §2
Preventive value=(1-diameter of disease spots of drug-treated group/diameter of disease spots of untreated group)×100

[5] = tested on: platelet aggregation (collagen); test: Anti-platelet aggregation effect, collagen-induced; format: cell-based, Hartley male guinea-pigs; settings: Cavia porcellus; collagen 2 μg/ml; guinea-pig platelet rich plasma, 37° C., 0.5% DMSO
Protocol: (§3) Blood was collected from the abdominal artery of Hartley male guinea-pigs (weight: about 300 g) into a syringe containing 1/10 volume 3.8% sodium citrate. The blood thus obtained was subjected to a centrifugation at 160×g for 10 minutes at room temperature to obtain platelet rich plasma (PRP). Furthermore, the residue was subjected to a centrifugation at 1500×g for 15 minutes to obtain platelet poor plasma (PPP). The measurement was carried out by diluting PRP with PPP to 300,000/mm^3. The measurement range of transmittance was adjusted to 0% in the case of PRP and to 100% in the case of PPP. Thereafter, a test compound dissolved in 100% dimethylsulfoxide (DMSO) was added to PRP (the final concentration of DMSO: 0.5%). After incubation at 37° C., 1000 rpm for 2 minutes, an aggregating agent was added to measure an aggregation curve. The anti-platelet aggregation effect of the test compound was expressed by a concentration (IC50 :μM) at which the aggregation of control was 50% inhibited. The aggregating agents used were ADP (the final concentration: 5 μM), collagen (the final concentration: 2 μg/ml) and U46619 (the final concentration: 0.5 μM). The measurement of platelet aggregation was carried out using NBS HEMA Tracer 601.

[6] = tested on: Aspergillus nigar; test: Minimum growth inhibition concentration, agar plate dilution method; format: cell-based
From the text: (§4) The measurement of the minimum growth inhibition concentration (MIC) was made following the agar plate dilution method using an agar medium containing the compound A.

[7] = tested on: Botrytis cinerea; test: as above; format: cell-based
From the text: as §4

[8] = tested on: Sclerotinia cinerea; test: as above; format: cell-based
From the text: as §4

[9] = tested on: Rhynchosporium secalis; test: as above; format: cell-based
From the text: as §4

[10] = tested on: Sclerotinia sclerotiorum; test: as above; format: cell-based
From the text: as §4

[11] = tested on: platelet aggregation (U46619); test: Anti-platelet aggregation effect, U46619-induced; format: cell-based, Hartley male guinea-pigs; settings: Cavia porcellus; U46619 0.5 μM; guinea-pig platelet rich plasma, 37° C., 0.5% DMSO
Protocol: as §3

[12] = tested on: platelet aggregation (ADP); test: Anti-platelet aggregation effect, ADP-induced; format: cell-based, Hartley male guinea-pigs; settings: Cavia porcellus; ADP 5 μM; guinea-pig platelet rich plasma, 37° C., 0.5% DMSO
Protocol: as §3

[13] = tested on: cucumber; test: Toxicity in Sclerotinia rot prevention test on cucumber; format: in vivo, cucumber (variety: Sagamihanjiro)
Protocol: as §1
(§5) On the following day, the first leaf on which was sprayed the drug solution was plucked off, and onto the surface of the leaf was inoculated a mycelia disk which had been prepared from the tip of a cell cluster of Sclerotinia sclerotiorum cultured at 20° C. for 1 day in a PSA medium by using a 4 mm-diameter cork borer. Then, the cucumber leaf was allowed to stand for 3 days at 20° C. in a moist chamber, the diameter of the disease spots which formed were measured measured, and the preventive value was determined according to the following equation.

[14] = tested on: Sclerotinia sclerotiorum; test: Test for controlling cucumber Sclerotinia rot (prevention test); format: in vivo; settings: Sclerotinia rot on cucumber, (1-diameter treated/untreated)×100
Protocol: Test for Controling Cucumber Sclerotinia Rot (Sclerotinia sclerotiorum) (Prevention Test)
as §1, §5
Preventive value=(1-diameter of diseased spots of drug-treated group/diameter of disease spots of untreated group)×100

Row | SMILES | Toxicity ([1]; 25 ppm spraying) | Toxicity ([1]; 50 ppm spraying) | Toxicity ([1]; 100 ppm spraying) | Preventive value ([2]; 50 ppm spraying) | Preventive value ([2]; 100 ppm spraying) | Preventive value ([4]; 25 ppm spraying) | Preventive value ([4]; 50 ppm spraying) | Preventive value ([4]; 100 ppm spraying) | also measured
1 | CCCCC1CC2=C(C(=O)OC2=O)C(C(O)CCCC)CC2=C1C(=O)OC2=O (stereo not drawn) [Compound A] | none | none | none | 73 | 79 | 100 | 100 | 100 | Solubility in solvents ([3]; chloroform, ethyl acetate, methanol): readily soluble; Solubility in solvents ([3]; water): sparingly soluble; IC50 [5]: 42 µM; MIC [6]: 3.13 µg/mL (≈ 8.02 µM); MIC [7]: 0.78 µg/mL (≈ 2 µM); MIC [8]: 3.13 µg/mL (≈ 8.02 µM); MIC [9]: 1.56 µg/mL (≈ 4 µM); MIC [10]: 1.56 µg/mL (≈ 4 µM); IC50 [11]: 484 µM; IC50 [12]: 187 µM
2 | CC(C)NC(=O)N1CC(=O)N(c2cc(Cl)cc(Cl)c2)C1=O [Iprodion, iprodion, reference compound] | none | none | none | 70 | 75 | 25 | 95 | 100 | Toxicity ([13]; 50 ppm spraying): none; Toxicity ([13]; 100 ppm spraying): none; Preventive value ([14]; 50 ppm spraying): 100; Preventive value ([14]; 100 ppm spraying): 100

From patent US5346919A, “Anti-bacterial substances and microorganisms which produce them” (Nissan Chemical Industries, Ltd., priority 1992, dated 1994)
